Read-outs that look alike come from different tables or passages of the source.

The subject of data set [1] is amastigotes axéniques de L. infantum. The data set is described as follows: Anti-leishmanial activity on axenic amastigotes of L. infantum (luciferase luminescence).
The next data set deals with lignée cellulaire Thp1. The data set can be described thus: Cytotoxicity by MTT test on Thp1 cell line. The class given is cell-based, humains. How it is done:
(§1) L'évaluation de la cytotoxicité des complexes selon l'invention par test MTT sur la lignée cellulaire Thp1 (lignée cellulaire de monocytes humains) a été réalisée selon Mosmann avec de légères modifications. En bref, les cellules (0,77.10^5 cellules/ml) dans 200 µL du milieu complet [RPMI 1640 supplémenté avec 10% de sérum de veau fœtal (FCS), 2 mM de L-glutamine et des antibiotiques (100 U/ml) pénicilline et 100 µg/ml de streptomycine)]+ PMA (50 ng/ml) ont été ensemencées dans chaque puits de plaques à 96 puits et incubées à 37°C sous atmosphère humidifiée à 5% de CO2 avec 95% d'air. Après une incubation de 96 h, les plaques ont été lavées 3 fois avec du milieu et 100 µl de milieu ont été ajoutés. Diverses concentrations et contrôles appropriés ont ensuite été ajoutés (100 µl) et les plaques ont été incubées pendant 72 h à 37°C.
(§2) Chaque puits a ensuite été examiné au microscope pour détecter la formation possible de précipité avant l'aspiration du milieu. Une solution de MTT (0,5 mg/ml dans du RPMI, 100 µl) a ensuite été ajoutée à chaque puits. Les cellules ont été incubées pendant 2 h à 37°C. La solution de MTT a ensuite été éliminée et du DMSO (100 µl) a été ajouté pour dissoudre les cristaux de formazan résultants. Les plaques ont été secouées vigoureusement (300 tr/min) pendant 5 min.
(§3) L'absorbance a été mesurée à 570 nm avec un spectrophotomètre pour microplaques. Le DMSO a été utilisé comme blanc et la doxorubicine (Sigma Aldrich) comme contrôle positif. Les CC50 ont été calculés par analyse de régression non linéaire traitée sur des courbes dose-réponse, à l'aide du logiciel TableCurve 2D V5.

Data set [2] in a line: Cytotoxicity by MTT test on Thp1 cell line. As to conditions: human. The class given is cell-based, humains. How it is done:
as §1, §2, §3

[3] abbreviates: Tableau 2, CC50 Thp1 / CI50 axenic amastigotes of L. infantum.
Setting [4] is: Leishmania infantum, read-out: Amastigotes axéniques de L. infantum CI50.
Where [5] appears, read: Leishmania infantum, read-out: Amastigotes axéniques de L. infantum CI50, Tableau 2, mean of three independent experiments.
[6] abbreviates: Tableau 2, 72 h incubation, mean of three independent experiments, read-out: Thp1 CC50.
[7] abbreviates: Tableau 3, separate experiments, mean of three independent experiments, read-out: Thp1 CC50.
Where [8] appears, read: read-out: CC50 sur la lignée cellulaire humaine Thp1.
Setting [9] is: Leishmania infantum, read-out: Amastigotes axéniques de L. infantum CI50, Tableau 3, separate experiments, mean of three independent experiments.
[10] abbreviates: Tableau 3, separate experiments, CC50 Thp1 / CI50 axenic amastigotes.

In the case of `CC(=O)OCC1OC([S][Au-][c]2n(-c3cccc(OC(F)(F)F)c3)cc[n+]2Cc2ccccc2)C(OC(C)=O)C(OC(C)=O)C1OC(C)=O` (centres unmarked) [Complexe 38], in data set [1] (setting [3]), the “Indice de sélectivité CC50/IC50 SI” value was 23,15. On the same count and under the same terms, the result for `CC(=O)OCC1OC([S][Au-][c]2n(-c3cc(C(F)(F)F)cc(C(F)(F)F)c3)cc[n+]2C(C)C)C(OC(C)=O)C(OC(C)=O)C1OC(C)=O` (centres unmarked) [Complexe 39] reads 18,79; that for `FC(F)(F)Oc1ccc(-n2cc[n+](Cc3ccccc3)[c]2[Au-][Cl])cc1` [Complexe 21], 67,85. As to `FC(F)(F)Oc1ccc(-n2cc[n+](Cc3ccccc3)c2)cc1` [compound 6, Chlorurede 3-Benzyl-1-(4-(trifluorométhoxy)phényl)-1H-imidazol-3-ium], the IC50 in data set [1] (setting [4]) was > 50 µM. On to `CC(=O)OCC1OC([S][Au-][c]2n(-c3ccc(OC(F)(F)F)cc3)cc[n+]2Cc2ccccc2)C(OC(C)=O)C(OC(C)=O)C1OC(C)=O` (centres unmarked) [Complexe 36], for which the “Indice de sélectivité CC50/IC50 SI” value in data set [1] (setting [3]) is 53,92. On to `CC(=O)OCC1OC([S][Au-][c]2n(-c3ccc(F)cc3)cc[n+]2C(C)C)C(OC(C)=O)C(OC(C)=O)C1OC(C)=O` (centres unmarked) [Complexe 40], for which the “Indice de sélectivité CC50/IC50 SI” value in data set [1] (setting [3]) turned out to be 13.43. As for `FC(F)(F)c1ccc(-n2cc[n+](-c3ccc4ccccc4n3)c2)cc1` [compound 20], the IC50 in data set [1] (setting [4]) was > 50 µM. Same read-out and setting: the result for `FC(F)(F)Oc1cccc(-n2cc[n+](-c3ccc4ccccc4n3)c2)c1` [compound 18, Chlorurede 3-(Quinolin-2-yl)-1-(3-(trifluoromethoxy)phenyl)-1H-imidazol-3-ium] reads > 50 µM. On to `FC(F)(F)Oc1cccc(-n2cc[n+](Cc3ccccc3)[c]2[Au-][Cl])c1` [Complexe 23], for which, in data set [1] (setting [3]), the “Indice de sélectivité CC50/IC50 SI” value is 62,55. Consider `FC(F)(F)c1cc(-n2cc[n+](-c3ccc4ccccc4n3)c2)cc(C(F)(F)F)c1` [compound 17, Chlorurede 1-(3,5-Bis(trifluoromethyl)phenyl)-3-(quinolin-2-yl)-1H-imidazol-3-ium], for which, in the data set with lignée cellulaire Thp1, the “toxicité (in words)” value is “plutôt toxique”. Further, in data set [1] (setting [5]), the IC50 is 14.5 µM. Besides, the “Indice de sélectivité CC50/IC50 SI” value in data set [1] (setting [3]) is listed as 3,07. In addition, the “activité anti-leishmanienne (in words)” value in data set [1] (axenic amastigotes of L. infantum) is recorded as “modérément actif”. Take `FC(F)(F)c1ccc(-n2cc[n+](Cc3ccccc3)c2)cc1` [compound 10, Chlorurede 3-Benzyl-1-(4-(trifluoromethyl)phenyl)-1H-imidazol-3-ium chloride]: in data set [1] (setting [4]), the IC50 is > 50 µM. `Fc1ccc(-n2cc[n+](Cc3ccccc3)c2)cc1` [compound 9, Chlorurede 3-Benzyl-1-(4-fluorophenyl)-1H-imidazol-3-ium chloride]: the IC50 in data set [1] (setting [4]) was > 50 µM.

As to `FC(F)(F)c1cc(-n2cc[n+](Cc3ccccc3)c2)cc(C(F)(F)F)c1` [compound 7, Chlorurede 3-Benzyl-1-(3,5-bis(trifluoromethyl)phenyl)-1H-imidazol-3-ium], in data set [1] (read-out: Amastigotes axéniques de L. infantum CI50, Tableau 2, mean of three independent experiments), the IC50 was > 50 µM. `CC(C)[n+]1ccn(-c2cccc(OC(F)(F)F)c2)[c]1[Au-][Cl]` [Complexe 28]: the “Indice de sélectivité CC50/IC50 SI” value in data set [1] (setting [3]) turned out to be 178.52. On to `FC(F)(F)Oc1ccc(-n2cc[n+](-c3ccc4ccccc4n3)[c]2[Au-][Cl])cc1` [Complexe 31], for which the “Indice de sélectivité CC50/IC50 SI” value in data set [1] (setting [3]) is listed as 136,42. With `FC(F)(F)Oc1cccc(-n2cc[n+](Cc3ccccc3)c2)c1` [compound 8, Chlorurede 3-Benzyl-1-(3-(trifluoromethoxy)phenyl)-1H-imidazol-3-ium chloride], the IC50 in data set [1] (setting [4]) was > 50 µM. With `CC(C)[n+]1ccn(-c2ccc(F)cc2)[c]1[Au-][Cl]` [Complexe 29], the “Indice de sélectivité CC50/IC50 SI” value in data set [1] (setting [3]) was 178,50. On to `FC(F)(F)Oc1cccc(-n2cc[n+](-c3ccc4ccccc4n3)[c]2[Au-][Cl])c1` [Complexe 33], for which, in data set [1] (setting [3]), the “Indice de sélectivité CC50/IC50 SI” value is listed as 129,70. On the same count and under the same terms, the result for `FC(F)(F)c1ccc(-n2cc[n+](-c3ccc4ccccc4n3)[c]2[Au-][Cl])cc1` [Complexe 35] reads 130,05; that for `CC(C)[n+]1ccn(-c2ccc(OC(F)(F)F)cc2)[c]1[Au-][Cl]` [Complexe 26], 118,53.

For the compound `CC(C)[n+]1ccn(-c2ccc(C(F)(F)F)cc2)c1` [compound 15, Bromurede 3-Isopropyl-1-(4-(trifluoromethyl)phenyl)-1H-imidazol-3-ium], in data set [1] (setting [4]), the IC50 was > 50 µM. For `CC(C)[n+]1ccn(-c2cc(C(F)(F)F)cc(C(F)(F)F)c2)[c]1[Au-][Cl]` [Complexe 27], the “Indice de sélectivité CC50/IC50 SI” value in data set [1] (setting [3]) was 119,72. In the case of `N=C(N)c1ccc(OCCCCCOc2ccc(C(=N)N)cc2)cc1` [Pentamidine, reference compound], the CC50 at 72 h is > 50 µM in data set [2] (setting [6]), 65.9 ± 7.49 µM in data set [2] (setting [7]) and > 50 µM in data set [2] (setting [8]). Moreover, the IC50 was 10.5 µM in data set [1] (setting [5]) and 1.36 µM in data set [1] (setting [9]). Besides, the “Indice de sélectivité CC50/IC50 SI” value is recorded as >4,74 in data set [1] (setting [3]); > 4,74 in data set [1] (Tableau 2, CC50 Thp1 / CI50 axenic amastigotes of L. infantum, listed as pentamidine); 48.43 in data set [1] (setting [10]). As for `FC(F)(F)Oc1ccc(-n2cc[n+](-c3ccc4ccccc4n3)c2)cc1` [compound 16, Chlorurede 3-(Quinolin-2-yl)-1-(4-(trifluoromethoxy)phenyl)-1H-imidazol-3-ium], in data set [1] (setting [4]), the IC50 was > 50 µM. `Fc1ccc(-n2cc[n+](-c3ccc4ccccc4n3)[c]2[Au-][Cl])cc1` [Complexe 34]: the “Indice de sélectivité CC50/IC50 SI” value in data set [1] (setting [3]) is 474,17.

Regarding `CC(=O)OCC1OC([S][Au-][c]2n(-c3cc(C(F)(F)F)cc(C(F)(F)F)c3)cc[n+]2Cc2ccccc2)C(OC(C)=O)C(OC(C)=O)C1OC(C)=O` (centres unmarked) [Complexe 37], the “Indice de sélectivité CC50/IC50 SI” value in data set [1] (setting [3]) was 30,63. `CC(C)[n+]1ccn(-c2cc(C(F)(F)F)cc(C(F)(F)F)c2)c1` [compound 12, Bromurede 1-(3,5-Bis(trifluorométhyl)phényl)-3-isopropyl-1H-imidazol-3-ium]: in data set [1] (setting [4]), the IC50 was > 50 µM. In the case of `CCCCCCCCCCCCCCCCOP(=O)([O-])OCC[N+](C)(C)C` [Miltéfosine, reference compound], the CC50 in the data set with lignée cellulaire Thp1 (setting [7]) and in the data set on lignée cellulaire Thp1 (setting [8]) was 35 µM throughout. Moreover, the IC50 amounted to 0.71 µM in data set [1] (setting [5]) and 0.46 µM in data set [1] (setting [9]). The “Indice de sélectivité CC50/IC50 SI” value was 49,32 in data set [1] (setting [3]); 53,06 in data set [1] (Tableau 2, CC50 Thp1 / CI50 axenic amastigotes of L. infantum, listed as miltéfosine); 76,13 in data set [1] (setting [10]). Take `CSc1ccc(OCc2ncc([N+](=O)[O-])n2C)cc1` [Fexinidazole, reference compound]: the 50% cytotoxic concentration (CC50) at 72 h in data set [2] (setting [6]) and in data set [2] (setting [8]) was > 355 µM each time. In addition, the IC50 in data set [1] (setting [4]) was 3.4 µM. Further, the “Indice de sélectivité CC50/IC50 SI” value in data set [1] (setting [3]) is >104,41; in data set [1] (Tableau 2, CC50 Thp1 / CI50 axenic amastigotes of L. infantum, listed as fexinidazole) it was > 104,41.

With `CC(C)[n+]1ccn(-c2cccc(OC(F)(F)F)c2)c1` [compound 13, Bromurede 3-Isopropyl-1-(3-(trifluorométhoxy)phényl)-1H-imidazol-3-ium], in data set [1] (setting [4]), the IC50 was > 50 µM. On to `COc1cccc2c1C(=O)c1c(O)c3c(c(O)c1C2=O)C[C@@](O)(C(=O)CO)C[C@@H]3O[C@H]1C[C@H](N)[C@H](O)[C@H](C)O1` [Doxorubicine], for which the CC50 at 72 h in data set [2] (setting [6]) and in data set [2] (setting [7]) was 0.7 µM in each case.

As for `FC(F)(F)c1cc(-n2cc[n+](Cc3ccccc3)[c]2[Au-][Cl])cc(C(F)(F)F)c1` [Complexe 22], the “Indice de sélectivité CC50/IC50 SI” value in data set [1] (setting [3]) is 47,09. Regarding `CC(C)[n+]1ccn(-c2ccc(OC(F)(F)F)cc2)c1` [compound 11, Bromurede 3-Isopropyl-1-(4-(trifluorométhoxy)phényl)-1H-imidazol-3-ium], in data set [1] (setting [4]), the IC50 was > 50 µM. On the same count and under the same terms, the result for `CC(C)[n+]1ccn(-c2ccc(F)cc2)c1` [compound 14, Bromurede 1-(4-Fluorophényl)-3-isopropyl-1H-imidazol-3-ium] reads > 50 µM; that for `Fc1ccc(-n2cc[n+](-c3ccc4ccccc4n3)c2)cc1` [compound 19, Chlorurede 1-(4-Fluorophenyl)-3-(quinolin-2-yl)-1H-imidazol-3-ium], > 50 µM.

Source of the values: patent EP4271680B1, “GOLD (I) COMPLEXES WITH FLUORINATED N-HETEROCYCLIC CARBENE LIGANDS AND USE THEREOF AS THERAPEUTIC AGENTS” (priority 2020, dated 2022).
